How the values were obtained:
[1] = test system: IL-8 production by HIPEC cells; test: IL-8 production by HIPECs, ELISA; format: cell-based, human; details: for IL-8 production: 5-ASA 1-10 μg/ml in culture medium
Method: Human gastrointestinal epithelial stem cell-like progenitor cells were isolated from a normal segment of the large intestine and a segment of the large intestine in a diseased state (such as a segment having ulcerative colitis). Epithelial monolayers were grown from these progenitor crypt cells on the appropriate BSME as described above. The effects of 5-ASA on spontaneous, LPS, or IFN-γ stimulated IL-8 production were assessed on HIPEC cells cultured in the presence or absence of either LPS or IFN-γ and 5-ASA (1-10 μg/ml). The level of IL-8 production was measured by ELISA.

[2] = cited from earlier work
[3] = test system: HIPEC monolayer derived from small intestinal segment (A2J1)
[4] = test system: HGISC-derived primary epithelial cell line SOJ2; test: Cellular toxicity of SN-38, MTT viability assay, SOJ2; format: cell-based, human; details: SOJ2 cells; increasing amounts of SN-38
Method: (§1) Briefly, HGISC-derived primary epithelial cell lines (A2J1 and SOJ2) and the malignant colonic adenocarcinoma cell line (HT29) were cultured, as described above in Examples 1A and 1B in medium containing different cytotoxic levels of the irinotecan metabolite 7-ethyl-10-hydroxy-20(S)-camptothecin (SN-38). […] Each cell culture was assessed for viability utilizing the MIT assay.
(§2) Yellow MTT (3-(4,5-Dimethylthiazol-2-yl)-2,5-diphenyltetrazolium bromide, a tetrazole) is reduced to purple formazan in living cells. A solubilization solution (usually either dimethyl sulfoxide, an acidified ethanol solution, or a solution of the detergent sodium dodecyl sulfate in diluted hydrochloric acid) is added to dissolve the insoluble purple formazan product into a colored solution. The absorbance of this colored solution may be quantified by measuring at a certain wavelength (usually between 500 and 600 nm) using a spectrophotometer. The absorption maximum is dependent on the solvent employed. The MTT assay may be used to determine cytotoxicity of materials, since those materials that result in cell toxicity, and therefore metabolic dysfunction, yield decreased performance in the assay.

[5] = test system: malignant colonic adenocarcinoma cell line (HT29); test: Cellular toxicity of SN-38, MTT viability assay, HT29; format: cell-based, human; details: HT29 cells; increasing amounts of SN-38
Method: as §1, §2

[6] = test system: HGISC-derived primary epithelial cell line A2J1; test: Cellular toxicity of SN-38, MTT viability assay, A2J1; format: cell-based, human; details: A2J1 cells; increasing amounts of SN-38
Method: as §1, §2

## IFN-γ: cytokine produced predominantly by natural killer T cells as part of the innate immune response
[1]; HIPECs from normal controls and from patients with IBS
  effect of stimulation on spontaneous IL-8 production: moderately enhanced

## CC(C)NCC(O)COc1cccc2ccccc12 (stereo not drawn) [propranolol]
[2]; administered in vivo
  absorption: absorbed rapidly and completely
[2]; due to extensive first-pass metabolism
  bioavailability: variable bioavailability
[3]
  permeability through small intestine (A2J1) compared with large intestine (5A): greater than through large intestine (5A)

## CCc1c2c(nc3ccc(O)cc13)-c1cc3c(c(=O)n1C2)COC(=O)[C@]3(O)CC [SN-38, 7-ethyl-10-hydroxy-20(S)-camptothecin]
[4]
  percent viability (MTT): above 50%
[5]
  percent viability (MTT): unaffected
[6]
  percent viability (MTT): 0%

## Nc1ccc(O)c(C(=O)O)c1 [5-ASA, 5-aminosalicyclic acid]
[1]; IBS HIPECs
  IL-8 production: suppressed
[1]; normal HIPECs
  IL-8 production: suppressed

— patent publication US20160084824A1, “DRUG DISCOVERY METHODS INVOLVING A PRECLNICAL, IN VITRO ISOLATED GASTROINTESTINAL EPITHELIAL STEM CELL-LIKE PROGENITOR CELL SYSTEM” (AlfaGene Bioscience, Inc., priority 2008, published 2016)
